Assays:
[1] = system: TNF α production by Balb/c mouse peritoneal cells; experiment: Inhibition of LPS-induced TNF α production from mouse peritoneal cells; type: cell-based; details: LPS 10 μg/ml stimulation, 16 to 18 hours, TNF α by sandwich ELISA
Description: Evaluation of Inhibiting Production of Tumor Necrosis Factors (TNF)
RPMI medium was injected into a peritoneal cavity of Balb/c mouse (Charles River Japan, Inc.) and the peritoneal cells were collected. The peritoneal cells were seeded on a 96-well plate in a concentration of 1×10^4 cells/well. 30 minutes after the addition of the subject pharmaceutical compounds in a proper concentration, LPS (sigma, L-5886) was added to each well so as to obtain the final concentration of 10 μg/ml. After culturing overnight (16 to 18 hours) again, a culture fluid was collected and the amount of TNF α in the culture fluid was determined. Mouse TNF α was determined by the means of a sandwitch ELISA and anti-mouse TNF a hamster monoclonal antibody (Genzyme 1221-00) was used as the first antibody, anti-mouse TNF α rabbit polyclonal antibody (Genzyme, IP-400) as the second antibody, and alkaliphosphatase conjugate anti-rabbit IgG polyclonal goat antibody as the third antibody. Then, optical absorbance of alkaliphosphatase substrate (p-nitrophosphate) was determined and converted into the production amount. When no stimulation was seen, the production amount was defined as 0% and when only […] stimulation was seen, the amount was defined as 100%.

[2] = system: MMP-3 (stromelysin-1) production by human joint normal synovial interstitial cells; experiment: Inhibition of IL-1β-induced MMP-3 production from synovial cells; type: cell-based; details: IL-1β 0.5 ng/ml stimulation, 16 to 18 hours, MMP-3 in culture fluid
Description: Evaluation of Inhibiting Production of Matrix Metalloprotease (MMP) Collected From Synovial Cells
The human joint normal synovial interstitial cells (cell System-SS cells, Dainippon Pharmaceutical Co., Ltd.) were seeded on a 96-well plate in a concentration of 1×10^4 cells/well and cultured overnight. 30 minutes after the addition of the subject pharmaceutical compounds in a proper concentration, IL-1β was added to each well so as to obtain the final concentration of 0.5 ng/ml. After culturing overnight (16 to 18 hours) again, a culture fluid was collected and the amount of MMP-3 (stromelysin-1) in the culture fluid was determined. MMP-3 was determined with a test kit for determining stromelysin-1 (SL) in serum (Fuji Chemical Industries Ltd.), in accordance with an instruction book attached to the kit. When no stimulation was seen, the production amount was defined as 0% and when only […] stimulation was seen, the amount was defined as 100%.

| Compound | TNF Inhibition Activity (IC50) [1] | MMP Inhibition Activity (IC50) [2] |
| --- | --- | --- |
| COc1ccc(-c2cnc3ccnc(Cl)c3c2)cc1OC [Example 19, 5-Chloro-3-(3,4-Dimethoxyphenyl)-1,6-Naphthylidine] | 1 µg/mL |  |
| COc1ccc(-c2cnc3ccnc(N)c3c2)cc1OC [Example 20, 5-Amino-3-(3,4-Dimethoxyphenyl)-1,6-Naphthylidine] | 0.3 µg/mL | 0.16 µg/mL |
| COc1ccc(-c2cnc3ccncc3c2)cc1OC1CCCC1 [Example 26, 3-(3-Cyclopentyloxy-4-Methoxyphenyl)-1,6-Naphthylidine] | 0.01 µg/mL |  |
| COc1ccc(-c2cnc3cnccc3c2)cc1OC [Example 22, 3-(3,4-Dimethoxyphenyl)-1,7-Naphthylidine] | 0.02 µg/mL | 1.25 µg/mL |
| COc1ccc(-c2cnc3cc(N)ncc3c2)cc1OC.Cl [Example 18, 7-Amino-3-(3,4-Dimethoxyphenyl)-1,6-Naphthylidine Hydrochloride] | 0.6 µg/mL | 0.31 µg/mL |
| COc1ccc(-c2cnc3ncccc3c2)cc1OC [Example 23, 3-(3,4-Dimethoxyphenyl)-1,8-Naphthylidine] | 0.1 µg/mL |  |
| COc1ccc(-c2ccc3cnccc3n2)cc1OC [Example 24, 2-(3,4-Dimethoxyphenyl)-1,6-Naphthylidine] | 0.6 µg/mL | 1.25 µg/mL |
| COc1ccc(-c2cnc3ccncc3c2)cc1OC [Example 1, 3-(3,4-Dimethoxyphenyl)-1,6-Naphtylidine] | 0.5 µg/mL | 1.25 µg/mL |

From US20030004165A1, “Polyazanaphthalene compounds and pharmaceutical use thereof” (AJINOMOTO CO. INC, priority 1999, published 2003)
